For 9 compounds, TGI and GI50 results are on record in PubChem BioAssay (NCI).

Among the test systems are SNB-19 CNS; NCI-H226 lung; HCT-116 colon; HCT-15 colon; SNB-75 CNS; SN12C renal; SF-539 CNS; TK-10 renal; U251 CNS; BT-549 breast; UO-31 renal; HT29 colon; SR leukemia; NCI-H23 lung; OVCAR-3 ovarian.
Holding throughout (test): NCI anticancer screen, dose series, 48 h

Values joined by “and” are separate entries in the source; they are usually repeats but may differ in a detail not shown here. Equal entries are not always repeated.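 Values below derive from 48-hour exposures of cells grown in 96-well plates, with endpoints linearly interpolated between the two concentrations bracketing the appropriate inhibition level. Abbreviation: GI50, concentration required for 50% inhibition of growth. The concentration for full growth arrest is given as TGI.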 A value given as a limit tells only on which side of the number the result lay.

With `COc1ccc(C(CC(=O)C(C)(C)CN2CCCCC2)SCCS(=O)(=O)O)cc1` (centres undefined), the TGI is greater than 100 µM in the test on SNB-19 CNS; greater than 100 µM in the test with NCI-H226 lung; greater than 100 µM in the test on HCT-116 colon; greater than 100 µM with HCT-15 colon; 91.9 µM with SNB-75 CNS; greater than 100 µM in the test on SN12C renal. The TGI is 38.8 µM in the test with SF-539 CNS; greater than 100 µM in the test with TK-10 renal; greater than 100 µM in the test on U251 CNS; greater than 100 µM with BT-549 breast; greater than 100 µM in the test on UO-31 renal; 83.2 µM with HT29 colon. Further, the results for the TGI with SR leukemia, in the test on NCI-H23 lung and in the test on OVCAR-3 ovarian were 49.7 µM, 98.7 µM and 38.3 µM, respectively.
As for `COC(=O)c1c(O)ccc2c1c1c(n2Cc2ccc(Cl)cc2Cl)C(=O)c2ccccc2C1=O`, the TGI with SNB-19 CNS came out at 30.6 µM; in the test on NCI-H226 lung it was 24.8 µM; in the test with HCT-116 colon, 13.1 µM; with HCT-15 colon it was 18.5 µM; in the test on SNB-75 CNS, 32.3 µM; in the test with SN12C renal, 5.62 µM. The TGI in the test with SF-539 CNS was determined as 27.7 µM; in the test on TK-10 renal, 29 µM; with U251 CNS, 24.6 µM; in the test with BT-549 breast it was 26.1 µM; in the test on UO-31 renal it was 22.8 µM; in the test with HT29 colon, 32.1 µM. Also, the TGI in the test with SR leukemia was 12.3 µM; with NCI-H23 lung, 24.8 µM; in the test with OVCAR-3 ovarian, 27.2 µM.
For the compound `CC(C)NC(=O)OCc1c(COC(=O)NC(C)C)c(-c2cc[n+](COC(=O)C(C)(C)C)cc2)n2c1CCC2`, the TGI with SNB-19 CNS, in the test with NCI-H226 lung, in the test on HCT-116 colon, in the test with HCT-15 colon, with SNB-75 CNS and in the test on SN12C renal was greater than 100 µM throughout. In addition, the TGI with SF-539 CNS, in the test on TK-10 renal, with U251 CNS, in the test on BT-549 breast, with UO-31 renal and in the test on HT29 colon was greater than 100 µM each time. Further, the TGI in the test on SR leukemia, in the test on NCI-H23 lung and with OVCAR-3 ovarian was greater than 100 µM throughout.
Take `CC(=O)NC(CCC(=O)C=[N+]=N)C(=O)O` (centres undefined): the TGI in the test with SNB-19 CNS, with NCI-H226 lung, in the test with HCT-116 colon, with HCT-15 colon, with SNB-75 CNS and in the test on SN12C renal was greater than 100 µM each time. Besides, the TGI in the test on SF-539 CNS, in the test with TK-10 renal, in the test on U251 CNS, in the test on BT-549 breast, in the test on UO-31 renal and in the test with HT29 colon was greater than 100 µM each time. Moreover, the TGI in the test on SR leukemia, in the test with NCI-H23 lung and in the test on OVCAR-3 ovarian was greater than 100 µM throughout.
`O=C(c1ccccc1)c1ccc(-n2c3ccccc3c3ccc4c(c32)C(=O)C=CC4=O)cc1`: the TGI in the test on SNB-19 CNS is 36.4 µM; in the test with NCI-H226 lung, 53.8 µM; in the test with HCT-116 colon, 16.3 µM; with HCT-15 colon, 31.3 µM; in the test with SNB-75 CNS, greater than 58.4 µM; with SN12C renal, 28.3 µM. The TGI with SF-539 CNS stood at 34.2 µM; in the test with TK-10 renal, 25.3 µM; in the test on U251 CNS it was 30.4 µM; in the test with BT-549 breast, 38.5 µM; with UO-31 renal it was 7.78 µM; with HT29 colon, 8.35 µM. Moreover, the TGI is greater than 34 µM in the test on SR leukemia, 29.5 µM in the test with NCI-H23 lung and 20.8 µM in the test with OVCAR-3 ovarian.
On to `COc1ccc2[nH]cc([C@@H]3C4CCC(C4)[C@H]3NCc3cccc(CN[C@H]4C5CCC(C5)[C@@H]4c4c[nH]c5ccc(OC)cc45)c3)c2c1`, for which the TGI with SNB-19 CNS was 2.94 µM; with NCI-H226 lung, 3.64 µM; with HCT-116 colon it was 1.08 µM and 2.02 µM; in the test on HCT-15 colon, 1.95 µM and 2.39 µM; in the test with SNB-75 CNS it was 2.59 µM and 2.03 µM; in the test on SN12C renal, 3.1 µM and 2.93 µM. The TGI in the test with SF-539 CNS is 3.21 µM and 2.5 µM; in the test with TK-10 renal, 2.87 µM and 3.03 µM; with U251 CNS it was 0.329 µM and 0.324 µM; in the test with BT-549 breast, 3.16 µM and 3.18 µM; in the test with UO-31 renal, 2.85 µM and 2.64 µM; in the test with HT29 colon, 1.81 µM and 0.63 µM. The TGI in the test on SR leukemia was 0.78 µM and 1 µM; with NCI-H23 lung it was 3 µM and 2.93 µM; with OVCAR-3 ovarian it was 2.89 µM and 3.02 µM. Further, the GI50 in the test on HCT-116 colon is 0.351 µM; in the test on SNB-75 CNS, 0.785 µM; with U251 CNS it was 0.168 µM and 0.17 µM; with SR leukemia, 0.28 µM.
For the compound `Cc1ncc2c(=O)c3c(oc2n1)c1ccccc1n3Cc1ccccc1`, the TGI in the test on SNB-19 CNS, with NCI-H226 lung, in the test on HCT-116 colon, with HCT-15 colon, in the test with SNB-75 CNS and in the test with SN12C renal was greater than 100 µM in each case. The TGI with SF-539 CNS, in the test with TK-10 renal, in the test on U251 CNS, in the test on BT-549 breast, with UO-31 renal and in the test on HT29 colon was greater than 100 µM in each case. The TGI in the test on SR leukemia, in the test with NCI-H23 lung and in the test with OVCAR-3 ovarian was greater than 100 µM each time.
For `CC(=O)O[C@H]1/C(=C/c2ccncc2)C[C@H]2[C@@H]3CC=C4C[C@@H](N5CCCC5)CC[C@]4(C)[C@H]3CC[C@]12C`, the TGI was 31.9 µM with SNB-19 CNS; 38 µM with NCI-H226 lung; 15.3 µM in the test on HCT-116 colon; 24.7 µM in the test with HCT-15 colon; 28.3 µM in the test with SNB-75 CNS; 30.8 µM in the test with SN12C renal. In addition, the TGI turned out to be 35 µM in the test with SF-539 CNS; 29.5 µM in the test on TK-10 renal; 24.8 µM in the test with U251 CNS; 35.8 µM with BT-549 breast; 18.1 µM with UO-31 renal; 14.1 µM in the test with HT29 colon. Besides, the TGI in the test on SR leukemia stood at 21.6 µM; in the test with NCI-H23 lung, 30.7 µM; in the test with OVCAR-3 ovarian, 45.9 µM.
Turning to `Cc1ccc(N=Nc2ccc(O)c(CN(C)C)c2)cc1`, the TGI in the test with SNB-19 CNS was greater than 100 µM; with NCI-H226 lung it was 49.4 µM; in the test with HCT-116 colon it was 51.8 µM; in the test with HCT-15 colon, 50.2 µM; with SNB-75 CNS, 75.1 µM; in the test with SN12C renal, greater than 100 µM. Also, the TGI was 33.3 µM in the test on SF-539 CNS; 44.5 µM with TK-10 renal; greater than 100 µM with U251 CNS; 79.9 µM in the test on BT-549 breast; 54.1 µM with UO-31 renal; 32.3 µM with HT29 colon. In addition, the TGI with SR leukemia was greater than 100 µM; in the test with NCI-H23 lung, greater than 100 µM; with OVCAR-3 ovarian, 31.8 µM.
